We go through 27 compounds from patent US12351570B2 (MERCK PATENT GMBH, priority 2018, dated 2025).

The test deals with MDA-MB-231 cells. Description: Extracellular lactate production inhibition after 4 h, MDA-MB-231. The following applies: Homo sapiens, MDA-MB-231.
Description: Extracellular Lactate Production Inhibition after 4 h
Cells were plated in growth media supplemented with 10% FBS, followed by overnight recovery at 37° C., 5% CO2. […] Plates were then moved for 4 h incubation at 37° C., 5% CO2 with subsequent 20 μl media transfer to empty 384-well transparent plates. […] Plates were short-spun and measured kinetically in absorbance mode (530 nm, 12 min measurement time with 2-minute intervals between subsequent readouts at 30° C.). Differences in the signal between T8 min and T0min were normalized to vehicle (cells w/ 0.25% DMSO) and quasi-positive (LCIS buffer w/ 0.25% DMSO) controls and plotted against logarithmically-transformed test compound concentrations with fitting the 4-parameter model in GraphPad Prism software.
Turning to `COc1cc(-c2ccccc2)ccc1CN(C=O)c1ccccc1C#Cc1ccc(C(=O)O)nc1` [Compound 213, 5-(2-{2-[N-({3-methoxy-[1,1′-biphenyl]-4-yl}methyl)formamido]phenyl}-ethynyl)pyridine-2-carboxylic acid], the IC50 is 10 to 100 nM.

Compound `O=C(O)c1ccc(C#Cc2cc(Cl)ccc2NS(=O)(=O)c2cccc3cccnc23)cn1` [Compound 368, 5-{2-[5-chloro-2-(quinoline-8-sulfonamido)phenyl]ethynyl}pyridine-2-carboxylic acid] yielded an IC50 of 10 to 100 nM.

The compound `O=C(O)c1ccc(C#Cc2ccccc2NS(=O)(=O)c2ccc3c(c2)CCCC3)cc1` [Compound 7, 4-{2-[2-(5,6,7,8-tetrahydronaphthalene-2-sulfonamido)phenyl]ethynyl}benzoic acid] came in with an IC50 of 100 to 1000 nM.

In the case of `O=C(O)c1ccc(C#Cc2ccccc2NS(=O)(=O)c2cnc3ccccc3c2)cc1` [Compound 40, 4-{2-[2-(quinoline-3-sulfonamido)phenyl]ethynyl}benzoic acid], the IC50 is 1000 to 100000 nM.

The compound `Cn1c2ccccc2c2ccc(S(=O)(=O)Nc3ccccc3C#Cc3ccc(C(=O)O)nc3)cc21` [Compound 150, 5-{2-[2-(9-methyl-9H-carbazole-2-sulfonamido)phenyl]ethynyl}pyridine-2-carboxylic acid] came in with an IC50 of 100 to 1000 nM.

In turn, `CC(=O)N(Cc1ccccc1C#Cc1ccc(C(=O)O)nc1)c1cccc2ccccc12` [Compound 161, 5-[2-(2-{[N-(naphthalen-1-yl)acetamido]-methyl}phenyl)ethynyl]pyridine-2-carboxylic acid] had an IC50 of 100 to 1000 nM.

In turn, `O=C(O)c1ccc(C#Cc2ccc(F)cc2NS(=O)(=O)c2cccc3ccccc23)cn1` [Compound 285, 5-{2-[4-fluoro-2-(naphthalene-1-sulfonamido)phenyl]ethynyl}pyridine-2-carboxylic acid] displayed an IC50 of 100 to 1000 nM.

In turn, `COc1ccc(S(=O)(=O)Nc2ccccc2C#Cc2ccc(C(=O)O)nc2)c(C)c1` [Compound 72, 5-{2-[2-(4-methoxy-2-methylbenzenesulfonamido)phenyl]-ethynyl}pyridine-2-carboxylic acid] had an IC50 of 1000 to 100000 nM.

As to `O=C(O)c1ccc(C#Cc2ccccc2NS(=O)(=O)c2ccc3c(c2)CCO3)cc1` [Compound 3, 4-{2-[2-(2,3-dihydro-1-benzofuran-5-sulfonamido)phenyl]ethynyl}benzoic acid], the IC50 is 1000 to 100000 nM.

As to `C=C(C)c1cc(C(=O)O)ncc1C#Cc1ccccc1NS(=O)(=O)c1ccc(OC)c2cccnc12` [Compound 207], the IC50 lay within 10 to 100 nM.

For the compound `COc1cc(C(=O)N(C)C)ncc1C#Cc1cc(Cl)ccc1NS(=O)(=O)c1ccc(OC)c2cccnc12` [Compound 373, 5-{2-[5-chloro-2-(5-methoxyquinoline-8-sulfonamido)phenyl]ethynyl}-4-methoxy-N,N-dimethylpyridine-2-carboxamide], the IC50 is 1000 to 100000 nM.

`COc1ccc(S(=O)(=O)Nc2ccc(Cl)cc2C#Cc2cnc(C(=O)O)c3ccccc23)c2ncccc12` [Compound 236, 4-{2-[5-chloro-2-(5-methoxyquinoline-8-sulfonamido)phenyl]ethynyl}isoquinoline-1-carboxylic acid] gave an IC50 of 10 to 100 nM.

The compound `Cc1ccnc2c(S(=O)(=O)Nc3ccccc3C#Cc3ccc(C(=O)O)nc3)cccc12` [Compound 264, 5-[2-(4-Methyl-quinoline-8-sulfonyl-amino)-phenylethynyl]-pyridine-2-carboxylic acid] came in with an IC50 of 100 to 1000 nM.

For `O=C(O)c1ccc(C#Cc2ccccc2NS(=O)(=O)c2cccc3cccnc23)cn1` [Compound 52, 5-{2-[2-(quinoline-8-sulfonamido)phenyl]ethynyl}pyridine-2-carboxylic acid], the IC50 is 100 to 1000 nM.

`COc1ccc(S(=O)(=O)Nc2ccc(Cl)cc2C#Cc2ccc(C(=O)N(C)C)nc2)c2ncccc12` [Compound 239, 5-{2-[5-chloro-2-(5-methoxyquinoline-8-sulfonamido)phenyl]ethynyl}-N,N-dimethylpyridine-2-carboxamide] displayed an IC50 of 1000 to 100000 nM.

`O=C(O)c1ccc(C#Cc2ccccc2NS(=O)(=O)c2cccc3nccnc23)cc1` [Compound 66, 4-{2-[2-(quinoxaline-5-sulfonamido)phenyl]ethynyl}benzoic acid] came in with an IC50 of 1000 to 100000 nM.

The compound `O=C(O)c1ccc(C#Cc2ccccc2NS(=O)(=O)c2cccc3ncccc23)cc1` [Compound 35, 4-{2-[2-(quinoline-5-sulfonamido)phenyl]ethynyl}benzoic acid] showed an IC50 of 1000 to 100000 nM.

Regarding `COc1cc(C(=O)NO)ncc1C#Cc1ccccc1NS(=O)(=O)c1ccc(OC)c2cccnc12` [Compound 224, N-hydroxy-4-methoxy-5-{2-[2-(5-methoxyquinoline-8-sulfonamido)phenyl-]ethynyl}pyridine-2-carboxamide], the IC50 is 100 to 1000 nM.

In the case of `COc1cc(C(=O)O)ncc1C#Cc1ccccc1NS(=O)(=O)N1CCC(C)C2CCCCC21` (stereo not drawn) [Compound 222, 4-methoxy-5-[2-(2-{[(4-methyl-deca-hydroquinolin-1-yl)sulfonyl]amino}-phenyl)ethynyl]pyridine-2-carboxylic acid], the IC50 lay within 10 to 100 nM.

As for `COc1cc(C(=O)O)ncc1C#Cc1ccccc1N(C=O)Cc1ccc(-c2ccccc2OC)cc1` [Compound 215, 4-methoxy-5-(2-{2-[N-({2′-methoxy-[1,1′-biphenyl]-4-yl}methyl)formamido]phenyl}-ethynyl)pyridine-2-carboxylic acid], the IC50 lay within 1 to 10 nM.

On to `CS(=O)(=Nc1ccccc1C#Cc1ccc(C(=O)O)nc1)c1cccc(F)c1` (stereo not drawn) [Compound 436, 5-[2-(2-{[(3-fluorophenyl)(methyl)oxo-λ6-sulfanylidene]amino}phenyl)ethynyl] pyridine-2-carboxylic acid], for which the IC50 lay in the range of 1000 to 100000 nM.

Consider `O=C(O)c1ccc(C#Cc2ccccc2NS(=O)(=O)c2ccc3ccccc3c2)cc1O` [Compound 5, 2-hydroxy-4-{2-[2-(naphthalene-2-sulfonamido)phenyl]ethynyl}benzoic acid], for which the IC50 was in the range of 1000 to 100000 nM.

In turn, `CC(C)Oc1ccc(S(=O)(=O)Nc2ccccc2C#Cc2ccc(C(=O)O)nc2)c2ccccc12` [Compound 295, 5-(2-{2-[4-(propan-2-yloxy)naphthalene-1-sulfonamido]phenyl}ethynyl)pyridine-2-carboxylic acid] gave an IC50 of 10 to 100 nM.

Take `Cc1ccc2cccnc2c1S(=O)(=O)Nc1ccccc1C#Cc1cnc(C(=O)O)cc1Cl` [Compound 149, 4-chloro-5-{2-[2-(7-methylquinoline-8-sulfonamido)phenyl]ethynyl}pyridine-2-carboxylic acid]: the IC50 was in the range of 10 to 100 nM.

As for `Cc1ccc2cccc(S(=O)(=O)Nc3ccccc3C#Cc3ccc(C(=O)O)nc3)c2n1` [Compound 267, 5-[2-(2-Methyl-quinoline-8-sulfonylamino)-phenylethynyl]-pyridine-2-carboxylic acid], the IC50 is 100 to 1000 nM.

`O=C(O)c1ccc(C#Cc2cc(Cl)ccc2NS(=O)(=O)c2ccc(Cl)cc2)cc1` [Compound 269, 4-[5-Chloro-2-(4-chloro-benzenesulfonylamino)-phenylethynyl]-benzoic acid, reference compound]: the IC50 was in the range of 1000 to 100000 nM.

`O=C(O)c1ccc(C#Cc2ccccc2NS(=O)(=O)/C=C/c2ccccc2)cc1` [Compound 334, 4-(2-{2-[(E)-2-phenylethenesulfonamido]-phenyl}ethynyl)benzoic acid] gave an IC50 of 100 to 1000 nM.

As a reminder, the IC50 is the concentration at which inhibition is half-maximal. High values mean weaker potency in that assay, low ones greater potency in that assay.
